Data on ten compounds can be found in patent publication US20230111310A1, “CARBOXYLIC ACID DERIVATIVE-SUBSTITUTED IMINO ARYL COMPOUND, PREPARATION METHOD THEREFOR, HERBICIDAL COMPOSITION AND USE THEREOF” (Qingdao Kingagroot Chemical Compound Co., Ltd., priority 2020, published 2023).

Common to all, as to test: Weeding effect in post-emergence stage
Common to all, as to assay type: in vivo

One experiment deals with Echinochloa crusgalli. Conditions: Dose 15 g/ha; for Weeding effect in post-emergence stage, Echinochloa crusgalli: level of fresh weight growth control rate. From the text:
(§1) The activity level criteria for plant damage (i.e., growth control rate) are as follows:
(§2) Monocotyledonous and dicotyledonous weed seeds (Descurainia sophia, Capsella bursa-pastoris, Abutilon theophrasti, Galium aparine, Stellaria media, Lithospermum arvense, rorippa indica, Alopecurus aequalis, Alopecurus japonicus, Eleusine indica, Beckmannia syzigachne, Sclerochloa dura, Conyza Canadensis, Phleum paniculatum, Veronica didyma Tenore, Bromus japonicus, Aegilops tauschii, Phalaris arundinacea, Amaranthus retroflexus, Chenopodiaceae, Commelina communis, Sonchus arvensis, Convolvulus arvensis, Cirsium setosum, Bidens tripartita L., Solanum nigrum, Acalypha australis, Digitaria sanguinalis, Echinochloa crusgalli, Setaria viridis, Setaria glauca, Leptochloa chinensis, Monochoria vaginalis, Sagittaria trifolia, Scirpus juncoides, Cyperus rotundus, Cyperus iria, Cyperus difformis, Fimbristylis, Portulaca oleracea, Xanthium sibiricum, Pharbitis nil, etc.) and major crop seeds (wheat, corn, rice, soybean, cotton, oilseed rape, millet, sorghum, potato, sesame, ricinus, etc.) were placed in plastic pots filled with soil, then covered with 0.5-2 cm of soil, allowed to grow in a good greenhouse environment. After 2 weeks of sowing, the test plants were treated in the 2-3 leaf stage. The tested compounds of the present invention were respectively dissolved in acetone, then added with Tween 80 and 1.5 liter/ha of emulsifiable concentrate of methyl oleate as synergist, diluted with a certain amount of water to obtain a solution with a certain concentration, and sprayed with a spray tower onto the plants. After the application, the plants were cultured for 3 weeks in the greenhouse, and then the experimental results of the weeding were counted. The doses of the used compounds were 500, 250, 125, 60, 30, 15, 7.5 g/ha, and the averages were obtained by repeating for three times.

In another experiment the test system is Setaria viridis. The following applies: Dose 15 g/ha; for Weeding effect in post-emergence stage, Setaria viridis: level of fresh weight growth control rate.
Excerpt: as §1
as §2, with “The doses of the used compounds were 500, 250, 125, 60, 30, 15, 7.5 g/ha, and the averages were obtained by repeating for three times.” left out

For another experiment, the system named is Alopecurus japonicus. Conditions: Dose 15 g/ha; for Weeding effect in post-emergence stage, Alopecurus japonicus: level of fresh weight growth control rate.
Excerpt: as §1
as §2, with “The doses of the used compounds were 500, 250, 125, 60, 30, 15, 7.5 g/ha, and the averages were obtained by repeating for three times.” left out

The next experiment concerns Eleusine indica. Conditions: Dose 15 g/ha; for Weeding effect in post-emergence stage, Eleusine indica: level of fresh weight growth control rate.
Excerpt: as §1
as §2, with “The doses of the used compounds were 500, 250, 125, 60, 30, 15, 7.5 g/ha, and the averages were obtained by repeating for three times.” left out

The subject of the next experiment is Digitaria sanguinalis. The following applies: Dose 15 g/ha; for Weeding effect in post-emergence stage, Digitaria sanguinalis: level of fresh weight growth control rate.
Excerpt: as §1
as §2, with “The doses of the used compounds were 500, 250, 125, 60, 30, 15, 7.5 g/ha, and the averages were obtained by repeating for three times.” left out

A further experiment concerns Abutilon theophrasti. The following applies: Dose 15 g/ha; level of fresh weight growth control rate.
Excerpt: as §1
as §2, with “The doses of the used compounds were 500, 250, 125, 60, 30, 15, 7.5 g/ha, and the averages were obtained by repeating for three times.” left out

Setting [1] is: fresh weight control rate level.

In the case of `CCOC(=O)C(C)O/N=C/c1cc(-n2c(=O)n(C)c(=S)n(C)c2=O)c(F)cc1Cl` (racemic) [Compound 2], the “Weeding effect in post-emergence stage, Echinochloa crusgalli” value in the experiment with Echinochloa crusgalli is given as 5 (Level 5: growth control rate is above 85%). Also, in the experiment with Setaria viridis, the “Weeding effect in post-emergence stage, Setaria viridis” value is reported as 5 (Level 5: growth control rate is above 85%). The “Weeding effect in post-emergence stage, Alopecurus japonicus” value with Alopecurus japonicus is 5 (Level 5: growth control rate is above 85%). Also, the “Weeding effect in post-emergence stage, Eleusine indica” value in the experiment on Eleusine indica was 5 (Level 5: growth control rate is above 85%). In addition, the “Weeding effect in post-emergence stage, Digitaria sanguinalis” value in the experiment with Digitaria sanguinalis is 5 (Level 5: growth control rate is above 85%). For the same compound, the “Weeding effect in post-emergence stage, Abutilon theophrasti” value (“Weeding effect … Abutilon theophrasti” below) with Abutilon theophrasti is 5 (Level 5: growth control rate is above 85%).
`CCCOC(=O)C(C)O/N=C/c1cc(-n2c(=O)n(C)c(=S)n(C)c2=O)c(F)cc1Cl` (racemic) [Compound 4]: the “Weeding effect in post-emergence stage, Echinochloa crusgalli” value in the experiment with Echinochloa crusgalli is 5 (Level 5: growth control rate is above 85%). Also, the “Weeding effect in post-emergence stage, Setaria viridis” value in the experiment on Setaria viridis is 5 (Level 5: growth control rate is above 85%). Further, the “Weeding effect in post-emergence stage, Alopecurus japonicus” value in the experiment with Alopecurus japonicus is 5 (Level 5: growth control rate is above 85%). For the same compound, in the experiment with Eleusine indica, the “Weeding effect in post-emergence stage, Eleusine indica” value was 5 (Level 5: growth control rate is above 85%). Besides, in the experiment with Digitaria sanguinalis, the “Weeding effect in post-emergence stage, Digitaria sanguinalis” value is 5 (Level 5: growth control rate is above 85%). Also, the “Weeding effect … Abutilon theophrasti” value in the experiment with Abutilon theophrasti is 5 (Level 5: growth control rate is above 85%).
Consider `CC(C)OC(=O)C(C)O/N=C/c1cc(-n2c(=O)n(C)c(=S)n(C)c2=O)c(F)cc1Cl` (racemic) [Compound 5], for which the “Weeding effect in post-emergence stage, Echinochloa crusgalli” value with Echinochloa crusgalli is 5 (Level 5: growth control rate is above 85%). Further, the “Weeding effect in post-emergence stage, Setaria viridis” value in the experiment on Setaria viridis is reported as 5 (Level 5: growth control rate is above 85%). The “Weeding effect in post-emergence stage, Alopecurus japonicus” value with Alopecurus japonicus is on record as 5 (Level 5: growth control rate is above 85%). In addition, the “Weeding effect in post-emergence stage, Eleusine indica” value in the experiment with Eleusine indica was 5 (Level 5: growth control rate is above 85%). In addition, the “Weeding effect in post-emergence stage, Digitaria sanguinalis” value in the experiment on Digitaria sanguinalis is 5 (Level 5: growth control rate is above 85%). Further, in the experiment on Abutilon theophrasti, the “Weeding effect … Abutilon theophrasti” value is listed as 5 (Level 5: growth control rate is above 85%).
Regarding `C=CCCOC(=O)C(C)O/N=C/c1cc(-n2c(=O)n(C)c(=S)n(C)c2=O)c(F)cc1Cl` (racemic) [Compound 6], the “Weeding effect in post-emergence stage, Echinochloa crusgalli” value in the experiment on Echinochloa crusgalli is on record as 5 (Level 5: growth control rate is above 85%). Also, the “Weeding effect in post-emergence stage, Setaria viridis” value in the experiment with Setaria viridis is given as 5 (Level 5: growth control rate is above 85%). The “Weeding effect in post-emergence stage, Alopecurus japonicus” value in the experiment with Alopecurus japonicus is on record as 5 (Level 5: growth control rate is above 85%). For the same compound, the “Weeding effect in post-emergence stage, Eleusine indica” value in the experiment with Eleusine indica is 5 (Level 5: growth control rate is above 85%). In addition, the “Weeding effect in post-emergence stage, Digitaria sanguinalis” value in the experiment with Digitaria sanguinalis is 5 (Level 5: growth control rate is above 85%). Also, the “Weeding effect … Abutilon theophrasti” value in the experiment with Abutilon theophrasti was 5 (Level 5: growth control rate is above 85%).
Regarding `CC(O/N=C/c1cc(-n2c(=O)n(C)c(=S)n(C)c2=O)c(F)cc1Cl)C(=O)OCC1CC1` (racemic) [Compound 9], in the experiment with Echinochloa crusgalli, the “Weeding effect in post-emergence stage, Echinochloa crusgalli” value was 5 (Level 5: growth control rate is above 85%). Moreover, in the experiment with Setaria viridis, the “Weeding effect in post-emergence stage, Setaria viridis” value is 5 (Level 5: growth control rate is above 85%). Also, in the experiment with Alopecurus japonicus, the “Weeding effect in post-emergence stage, Alopecurus japonicus” value is reported as 5 (Level 5: growth control rate is above 85%). Also, the “Weeding effect in post-emergence stage, Eleusine indica” value with Eleusine indica is 5 (Level 5: growth control rate is above 85%). The “Weeding effect in post-emergence stage, Digitaria sanguinalis” value in the experiment on Digitaria sanguinalis was 5 (Level 5: growth control rate is above 85%). Also, the “Weeding effect … Abutilon theophrasti” value in the experiment with Abutilon theophrasti is 5 (Level 5: growth control rate is above 85%).
Turning to `CC(O/N=C/c1cc(-n2c(=O)n(C)c(=S)n(C)c2=O)c(F)cc1Cl)C(=O)OCCF` (racemic) [Compound 10], the “Weeding effect in post-emergence stage, Echinochloa crusgalli” value in the experiment on Echinochloa crusgalli is given as 5 (Level 5: growth control rate is above 85%). The “Weeding effect in post-emergence stage, Setaria viridis” value in the experiment with Setaria viridis is listed as 5 (Level 5: growth control rate is above 85%). Further, in the experiment with Alopecurus japonicus, the “Weeding effect in post-emergence stage, Alopecurus japonicus” value is 5 (Level 5: growth control rate is above 85%). Moreover, the “Weeding effect in post-emergence stage, Eleusine indica” value in the experiment with Eleusine indica was 5 (Level 5: growth control rate is above 85%). The “Weeding effect in post-emergence stage, Digitaria sanguinalis” value with Digitaria sanguinalis is 5 (Level 5: growth control rate is above 85%). The “Weeding effect … Abutilon theophrasti” value in the experiment on Abutilon theophrasti is listed as 5 (Level 5: growth control rate is above 85%).
For the compound `CC(O/N=C/c1cc(-n2c(=O)n(C)c(=S)n(C)c2=O)c(F)cc1Cl)C(=O)OCCCF` (racemic) [Compound 11], the “Weeding effect in post-emergence stage, Echinochloa crusgalli” value with Echinochloa crusgalli was 5 (Level 5: growth control rate is above 85%). For the same compound, the “Weeding effect in post-emergence stage, Setaria viridis” value in the experiment with Setaria viridis was 5 (Level 5: growth control rate is above 85%). In addition, in the experiment on Alopecurus japonicus, the “Weeding effect in post-emergence stage, Alopecurus japonicus” value is reported as 5 (Level 5: growth control rate is above 85%). In addition, the “Weeding effect in post-emergence stage, Eleusine indica” value with Eleusine indica is on record as 5 (Level 5: growth control rate is above 85%). Besides, the “Weeding effect in post-emergence stage, Digitaria sanguinalis” value in the experiment on Digitaria sanguinalis is given as 5 (Level 5: growth control rate is above 85%). Besides, the “Weeding effect … Abutilon theophrasti” value with Abutilon theophrasti was 5 (Level 5: growth control rate is above 85%).
`CC(O/N=C/c1cc(-n2c(=O)n(C)c(=S)n(C)c2=O)c(F)cc1Cl)C(=O)OCCCC(F)(F)F` (racemic) [Compound 12]: the “Weeding effect in post-emergence stage, Echinochloa crusgalli” value with Echinochloa crusgalli is given as 5 (Level 5: growth control rate is above 85%). Moreover, the “Weeding effect in post-emergence stage, Setaria viridis” value in the experiment with Setaria viridis is reported as 5 (Level 5: growth control rate is above 85%). Further, the “Weeding effect in post-emergence stage, Alopecurus japonicus” value in the experiment on Alopecurus japonicus is on record as 5 (Level 5: growth control rate is above 85%). Besides, the “Weeding effect in post-emergence stage, Eleusine indica” value in the experiment with Eleusine indica was 5 (Level 5: growth control rate is above 85%). The “Weeding effect in post-emergence stage, Digitaria sanguinalis” value with Digitaria sanguinalis is 5 (Level 5: growth control rate is above 85%). Also, the “Weeding effect … Abutilon theophrasti” value in the experiment on Abutilon theophrasti is reported as 5 (Level 5: growth control rate is above 85%).
Regarding `COCCOC(=O)C(C)O/N=C/c1cc(-n2c(=O)n(C)c(=S)n(C)c2=O)c(F)cc1Cl` (racemic) [Compound 14], the “Weeding effect in post-emergence stage, Echinochloa crusgalli” value in the experiment with Echinochloa crusgalli is 5 (Level 5: growth control rate is above 85%). Further, the “Weeding effect in post-emergence stage, Setaria viridis” value in the experiment on Setaria viridis was 5 (Level 5: growth control rate is above 85%). The “Weeding effect in post-emergence stage, Alopecurus japonicus” value in the experiment on Alopecurus japonicus was 4 (Level 4: growth control rate is greater than or equal to 60% and less than 85%). In the experiment with Eleusine indica, the “Weeding effect in post-emergence stage, Eleusine indica” value is 5 (Level 5: growth control rate is above 85%). Also, in the experiment with Digitaria sanguinalis, the “Weeding effect in post-emergence stage, Digitaria sanguinalis” value is 5 (Level 5: growth control rate is above 85%). Moreover, the “Weeding effect … Abutilon theophrasti” value in the experiment on Abutilon theophrasti is reported as 5 (Level 5: growth control rate is above 85%).
On to `COC(=O)C(C)O/N=C/c1cc(-n2c(=O)cc(C(F)(F)F)n(N)c2=O)c(F)cc1Cl` (centres unmarked) [Control compound E, reference compound], for which, in the experiment with Echinochloa crusgalli (setting [1]), the “Weeding effect in post-emergence stage, Echinochloa crusgalli (level)” value is 4 (Level 4: growth control rate is greater than or equal to 60% and less than 85%). Moreover, the “Weeding effect in post-emergence stage, Setaria viridis (level)” value in the experiment with Setaria viridis (setting [1]) is 4 (Level 4: growth control rate is greater than or equal to 60% and less than 85%). The “Weeding effect in post-emergence stage, Alopecurus japonicus (level)” value in the experiment on Alopecurus japonicus (setting [1]) was 3 (Level 3: growth control rate is greater than or equal to 40% and less than 60%). Also, in the experiment with Eleusine indica (setting [1]), the “Weeding effect in post-emergence stage, Eleusine indica (level)” value is 3 (Level 3: growth control rate is greater than or equal to 40% and less than 60%). In addition, in the experiment with Digitaria sanguinalis (setting [1]), the “Weeding effect in post-emergence stage, Digitaria sanguinalis (level)” value is 3 (Level 3: growth control rate is greater than or equal to 40% and less than 60%).
